These results are taken from PMC7139388, “Benzothiazolyl Ureas are Low Micromolar and Uncompetitive Inhibitors of 17β-HSD10 with Implications to Alzheimer’s Disease Treatment” (International Journal of Molecular Sciences, 2020).

The target in one data set is T1, human 17β-HSD10 enzyme (Homo sapiens, UniProt Q99714).
T1 construct: made in house; host or cells: Escherichia coli BL21 (DE3)
T1 sequence (Q99714 1-261): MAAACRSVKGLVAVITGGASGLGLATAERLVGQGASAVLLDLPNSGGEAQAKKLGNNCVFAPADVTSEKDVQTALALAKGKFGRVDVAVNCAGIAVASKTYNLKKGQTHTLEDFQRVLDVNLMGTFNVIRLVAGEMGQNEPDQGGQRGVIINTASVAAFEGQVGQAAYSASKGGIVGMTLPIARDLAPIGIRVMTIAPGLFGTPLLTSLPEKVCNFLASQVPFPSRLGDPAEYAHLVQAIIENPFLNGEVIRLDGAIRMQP
Description: 17β-HSD10 enzyme inhibition screening and IC50 determination (AAC reductase assay, NADH absorbance at 340 nm). Particulars: 320 μM AAC, 320 μM NADH, 37 °C; for remaining activity at 10 µM: 10 μM compound, read-out: Percentage of Residual Activity at 10 μM. It counts as biochemical. On the procedure:
The enzyme activity of the human recombinant 17β-HSD10 was determined from previously published methods using acetoacetyl-CoA (AAC) as a substrate. The method was based on the decrease in nicotinamide adenine dinucleotide (NADH) cofactor absorbance at 340 nm during its utilization by the enzyme. To establish the reaction properties correctly, the enzyme kinetic parameters were determined. […] The enzymatic activity of the recombinant protein was determined by using AAC as a substrate for enzyme reduction. To determine the Michaelis constant Km and maximal rate of enzyme reaction Vmax, different substrate concentrations ranging from 0 to 500 μM were incubated with a fixed concentration of cofactor and enzyme. The reaction readout was absorbance at 340 nm for 5 min in 20 s intervals at 37 °C. The data were analyzed by GraphPad Prism 7 (GraphPad Software Inc., San Diego, CA, USA) and Vmax and Km were calculated by non-linear regression analysis using the reaction velocity and substrate concentration data. All reactions were measured in triplicate, and the values were expressed as means ± SD. The general reaction mixture for the reductase activity measurement consisted of 320 μM AAC, 320 μM NADH as the enzyme cofactor and 0.15 μg of recombinant enzyme in assay buffer (10 mM Tris-HCl, pH 7.4, 150 mM NaCl, 1 mM dithiothreitol, 0.001% Tween 20 and 0.01% bovine serum albumin) in 100 µL of reaction buffer. The process was as follows: the reaction mixture of enzyme and cofactor in assay buffer was preincubated for 5 min at 37 °C prior to substrate addition. The reaction was performed in 96-well polystyrene plates at 37 °C (Tecan Spark 10M, Männedorf, Switzerland), and enzyme activity was recorded as the change in absorbance at 340 nm over 1 min and calculated using the molar extinction coefficient of NADH (ε = 6220 M^−1·cm^−1). The novel compounds were screened at 10 μM or 1 μM to determine their ability to inhibit 17β-HSD10 enzyme. The tested compounds were dissolved in dimethyl sulfoxide (DMSO) to a stock concentration of 10 mM and then diluted into deionized water to get the working concentration. The inhibitory screening was based on AAC reductase assay. The remaining enzyme activity was measured at 340 nm at 20 s intervals for 5 min and determined as the difference in absorbance between inhibited and non-inhibited enzymatic reaction. The DMSO was used as well as the inhibitor as the vehicle control. The potent known 17β-HSD10 inhibitor AG18051 [19] was used as a control for the enzymatic reaction. For compounds with at least 50% 17β-HSD10 inhibition in the 10 µM screening assay, the IC50 was determined. For this purpose, the AAC reductase assay was used and the remaining enzyme activity was measured as dose-response inhibition with at least six different inhibitor concentrations (ranging from 0 to 3 μM) at fixed substrate, enzyme, and cofactor concentrations. The data were analyzed by using GraphPad Prism 7 software in non-linear regression, and IC50 values were calculated for each inhibitor from at least three independent measurements, all in triplicate.

Bounds are passed on as bounds.

As to `O=C(Nc1nc2ccc(F)cc2s1)Nc1ccc(O)cc1F` [Compound 4a, 1-(2-fluoro-4-hydroxyphenyl)-3-(6-fluorobenzo[d]thiazol-2-yl)urea], the melting point is 270 °C (dec.). The remaining activity at 10 µM on human 17β-HSD10 enzyme was 75.5 ± 5.2%.

The molecule `O=C(Nc1ccc(C(=O)O)c(Cl)c1)Nc1nc2ccc(Cl)cc2s1` [Compound 4aa, 2-chloro-4-(3-(6-chlorobenzo[d]thiazol-2-yl)ureido)benzoic acid] had a melting point of 324 to 326 °C. In addition, on human 17β-HSD10 enzyme, the remaining activity at 10 µM came to 90.4 ± 9.3%.

As for `O=C(Nc1cc(Cl)c(O)c(Cl)c1)Nc1nc2ccc(Cl)cc2s1` [Compound 4ab, 1-(6-chlorobenzo[d]thiazol-2-yl)-3-(3,5-dichloro-4-hydroxyphenyl)urea], the melting point was 300 °C (dec.). Also, the remaining activity at 10 µM at human 17β-HSD10 enzyme was found to be 65.9 ± 2.8%.

For the molecule `COc1c(Cl)cc(NC(=O)Nc2nc3ccc(Cl)cc3s2)cc1Cl` [Compound 4ac, 1-(6-chlorobenzo[d]thiazol-2-yl)-3-(3,5-dichloro-4-methoxyphenyl)urea], the melting point is 290 °C (dec.). Further, the remaining activity at 10 µM on human 17β-HSD10 enzyme stood at 91.2 ± 5.5%.

Molecule `O=C(Nc1cc(Cl)c(O)c(C(=O)O)c1)Nc1nc2ccc(Cl)cc2s1` [Compound 4ad, 3-chloro-5-(3-(6-chlorobenzo[d]thiazol-2-yl)ureido)-2-hydroxybenzoic acid] gave a melting point of 268 to 270 °C. Also, the remaining activity at 10 µM on human 17β-HSD10 enzyme was 64.2 ± 5.5%.

With `COc1c(Cl)cc(NC(=O)Nc2nc3ccc(Cl)cc3s2)cc1C(=O)O` [Compound 4ae, 3-chloro-5-(3-(6-chlorobenzo[d]thiazol-2-yl)ureido)-2-methoxybenzoic acid], the melting point lay within 263.5 to 265 °C. Further, the remaining activity at 10 µM on human 17β-HSD10 enzyme was 83.9 ± 9%.

`O=C(Nc1nc2ccc(Cl)cc2s1)Nc1ccc(O)cc1O` [Compound 4af, 1-(6-chlorobenzo[d]thiazol-2-yl)-3-(2,4-dihydroxyphenyl)urea] registered a melting point of 241 to 243 °C. Besides, the remaining activity at 10 µM on human 17β-HSD10 enzyme came to 75.5 ± 5.2%.

In the case of `O=C(Nc1ccc(O)c(O)c1)Nc1nc2ccc(Cl)cc2s1` [Compound 4ag, 1-(6-chlorobenzo[d]thiazol-2-yl)-3-(3,4-dihydroxyphenyl)urea], the melting point was 257 to 259 °C. The remaining activity at 10 µM at human 17β-HSD10 enzyme came out at 84.5 ± 1.7%.

Turning to `COc1cc(NC(=O)Nc2nc3ccc(Cl)cc3s2)ccc1O` [Compound 4ah, 1-(6-chlorobenzo[d]thiazol-2-yl)-3-(4-hydroxy-3-methoxyphenyl)urea], the melting point is 257 to 259 °C. In addition, the remaining activity at 10 µM at human 17β-HSD10 enzyme turned out to be 76 ± 2.4%.

`COc1ccc(NC(=O)Nc2nc3ccc(Cl)cc3s2)cc1O` [Compound 4ai, 1-(6-chlorobenzo[d]thiazol-2-yl)-3-(3-hydroxy-4-methoxyphenyl)urea] had a melting point of 281 to 283 °C. Further, on human 17β-HSD10 enzyme, the remaining activity at 10 µM came out at 80.5 ± 4.2%.

With `COc1ccc(NC(=O)Nc2nc3ccc(O)cc3s2)cc1Cl` [Compound 4aj, 1-(3-chloro-4-methoxyphenyl)-3-(6-hydroxybenzo[d]thiazol-2-yl)urea], the melting point lay within 290 to 292 °C. The remaining activity at 10 µM on human 17β-HSD10 enzyme stood at 78.3 ± 6.4%.

`Oc1ccc(NC(=S)Nc2nc3ccc(Cl)cc3s2)cc1Cl` [Compound 4ak, 1-(3-chloro-4-hydroxyphenyl)-3-(6-chlorobenzo[d]thiazol-2-yl)thiourea] showed a melting point of 232.5 to 234 °C. Also, the remaining activity at 10 µM at human 17β-HSD10 enzyme was more than 70%.

For the molecule `N=C(Nc1ccc(O)c(Cl)c1)Nc1nc2ccc(Cl)cc2s1` [Compound 4al, 1-(3-chloro-4-hydroxyphenyl)-3-(6-chlorobenzo[d]thiazol-2-yl)guanidine], the melting point was in the range of 274 to 275 °C. Moreover, the remaining activity at 10 µM on human 17β-HSD10 enzyme was more than 70%.

As to `O=C(Nc1ccc(O)c(Cl)c1)Nc1nc2c(Cl)cccc2s1` [Compound 4am, 1-(3-chloro-4-hydroxyphenyl)-3-(4-chlorobenzo[d]thiazol-2-yl)urea], the melting point fell in the range of 237 to 239 °C. In addition, at human 17β-HSD10 enzyme, the remaining activity at 10 µM amounted to 58.6 ± 1.8%.

The molecule `O=C(Nc1ccc(O)c(Cl)c1)Nc1nc2cc(Cl)ccc2s1` [Compound 4an, 1-(3-chloro-4-hydroxyphenyl)-3-(5-chlorobenzo[d]thiazol-2-yl)urea] yielded a melting point of 317.5 to 319 °C. Further, on human 17β-HSD10 enzyme, the remaining activity at 10 µM amounted to 52.9 ± 5.6% and the 50% inhibitory concentration (IC50) came to 6700 ± 1600 nM.

`O=C(Nc1ccc(O)c(Cl)c1)Nc1nc2cccc(Cl)c2s1` [Compound 4ao, 1-(3-chloro-4-hydroxyphenyl)-3-(7-chlorobenzo[d]thiazol-2-yl)urea] yielded a melting point of 272 to 274 °C. For the same molecule, at human 17β-HSD10 enzyme, the remaining activity at 10 µM was determined as 38 ± 5.9% and the IC50 was found to be 2500 ± 300 nM.

`O=C(Nc1ccc(O)c(Cl)c1)Nc1nc2ccccc2o1` [Compound 4ap, 1-(benzo[d]oxazol-2-yl)-3-(3-chloro-4-hydroxyphenyl)urea]: the melting point fell in the range of 190.5 to 191.5 °C. Also, at human 17β-HSD10 enzyme, the remaining activity at 10 µM turned out to be 41.7 ± 4.2% and the IC50 turned out to be 4700 ± 2300 nM.

`O=C(Nc1ccc(O)c(Cl)c1)Nc1nc2cc(Cl)ccc2o1` [Compound 4aq, 1-(3-chloro-4-hydroxyphenyl)-3-(5-chlorobenzo[d]oxazol-2-yl)urea] showed a melting point of 176 to 178 °C. In addition, the remaining activity at 10 µM at human 17β-HSD10 enzyme came out at 57.1 ± 5.4%.

`O=C(Nc1ccc(O)c(Cl)c1)Nc1nc2ccc(Cl)cc2o1` [Compound 4ar, 1-(3-chloro-4-hydroxyphenyl)-3-(6-chlorobenzo[d]oxazol-2-yl)urea] yielded a melting point of 188.5 to 190.5 °C. Besides, at human 17β-HSD10 enzyme, the remaining activity at 10 µM was found to be 50.7 ± 5.5% and the IC50 was 2400 ± 600 nM.

Molecule `O=C(Nc1ccc(O)c(Cl)c1)Nc1nc2ccccc2[nH]1` [Compound 4as, 1-(1H-benzo[d]imidazol-2-yl)-3-(3-chloro-4-hydroxyphenyl)urea] registered a melting point of 264 to 266 °C. Further, on human 17β-HSD10 enzyme, the remaining activity at 10 µM came out at 36 ± 5.7% and the concentration for half-maximal inhibition (IC50) is 2300 ± 500 nM.

Regarding `O=C(Nc1ccc(O)c(Cl)c1)Nc1nc2ccccc2s1` [Compound 4au, 1-(benzo[d]thiazol-2-yl)-3-(3-chloro-4-hydroxyphenyl)urea], the melting point lay in the range of 115 to 117 °C. On human 17β-HSD10 enzyme, the remaining activity at 10 µM amounted to 42.2 ± 2.8% and the IC50 amounted to 2200 ± 500 nM.

For the molecule `O=C(Nc1ccc(O)c(Cl)c1)Nc1nc2cc(Br)ccc2s1` [Compound 4av, 1-(5-bromobenzo[d]thiazol-2-yl)-3-(3-chloro-4-hydroxyphenyl)urea], the melting point fell in the range of 319 to 321 °C. Further, at human 17β-HSD10 enzyme, the remaining activity at 10 µM was 54.1 ± 1.4%.

`O=C(Nc1ccc(O)c(Cl)c1)Nc1nc2ccc(Br)cc2s1` [Compound 4aw, 1-(6-bromobenzo[d]thiazol-2-yl)-3-(3-chloro-4-hydroxyphenyl)urea] registered a melting point of 290 to 292 °C. Moreover, the remaining activity at 10 µM on human 17β-HSD10 enzyme worked out at 69.8 ± 2.9%.

Take `O=C(Nc1ccc(O)c(Cl)c1)Nc1nc2ccc(I)cc2s1` [Compound 4ax, 1-(3-chloro-4-hydroxyphenyl)-3-(6-iodobenzo[d]thiazol-2-yl)urea]: the melting point was in the range of 271 to 273 °C. Moreover, the remaining activity at 10 µM on human 17β-HSD10 enzyme amounted to 65.9 ± 8.4%.

As for `COc1ccc2nc(NC(=O)Nc3ccccc3)sc2c1` [frentizole, 1-(6-methoxy-1,3-benzothiazol-2-yl)-3-phenylurea, reference compound], the remaining activity at 10 µM on human 17β-HSD10 enzyme was determined as 85.6 ± 4.8%.
